“And” between values parts separate entries of the source, which are not always exact repeats. Equal entries are not always repeated. Toxic doses and inconclusive results are not listed.
System: CD2F1 mice, L1210 leukemia ip, survival T/C
Assay: NCI In Vivo Anticancer Drug Screen. Data for tumor model L1210 Leukemia (intraperitoneal) in CD2F1 (CDF1) mice
Details: higher = longer survival
Method in brief: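 Vehicle-treated tumor-bearing mice served as controls (C) for compound-treated mice (T). Reported figure is T divided by C.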

[1] = endpoint: mean survival time, dose: 6.25 mg/kg/injection, schedule: Q01DX009 (ip), vehicle: saline with Tween-80
[2] = endpoint: mean survival time, dose: 100.0 mg/kg/injection, schedule: Q04DX003 (ip), vehicle: saline with Tween-80
[3] = endpoint: mean survival time, dose: 100.0 mg/kg/injection, schedule: Q01DX009 (ip), vehicle: saline with Tween-80
[4] = endpoint: mean survival time, dose: 200.0 mg/kg/injection, schedule: Q01DX009 (ip), vehicle: saline with Tween-80
[5] = endpoint: mean survival time, dose: 400.0 mg/kg/injection, schedule: Q01DX009 (ip), vehicle: saline with Tween-80
[6] = endpoint: mean survival time, dose: 200.0 mg/kg/injection, schedule: Q04DX003 (ip), vehicle: saline with Tween-80
[7] = endpoint: mean survival time, dose: 400.0 mg/kg/injection, schedule: Q04DX003 (ip), vehicle: saline with Tween-80
[8] = endpoint: mean survival time, dose: 50.0 mg/kg/injection, schedule: Q01DX009 (ip), vehicle: saline with Tween-80
[9] = endpoint: mean survival time, dose: 200.0 mg/kg/injection, schedule: Q01DX001 (ip), vehicle: saline with Tween-80

SMILES: CN1NC(=O)C2CCCC1O2 (stereo not given)
- T/C (endpoint: mean survival time, dose: 12.5 mg/kg/injection, schedule: Q01DX009 (ip), vehicle: saline): 106 % of control
- T/C (endpoint: mean survival time, dose: 25.0 mg/kg/injection, schedule: Q01DX009 (ip), vehicle: saline): 102 % of control
- T/C (endpoint: mean survival time, dose: 50.0 mg/kg/injection, schedule: Q01DX009 (ip), vehicle: saline): 105 % of control
- T/C (endpoint: mean survival time, dose: 100.0 mg/kg/injection, schedule: Q01DX009 (ip), vehicle: saline): 111 % of control

SMILES: CCCCNC(C)(C)C(SSC(c1ccc(Cl)cc1)C(C)(C)NCCCC)c1ccc(Cl)cc1 (stereo not given)
- T/C [1]: 96 % of control
- T/C (endpoint: mean survival time, dose: 12.5 mg/kg/injection, schedule: Q01DX009 (ip), vehicle: saline with Tween-80): 98 % of control
- T/C (endpoint: mean survival time, dose: 25.0 mg/kg/injection, schedule: Q01DX009 (ip), vehicle: saline with Tween-80): 96 % of control and 100 % of control
- T/C (endpoint: mean survival time, dose: 25.0 mg/kg/injection, schedule: Q04DX003 (ip), vehicle: saline with Tween-80): 90 % of control
- T/C (endpoint: mean survival time, dose: 50.0 mg/kg/injection, schedule: Q04DX003 (ip), vehicle: saline with Tween-80): 92 % of control
- T/C [2]: 95 % of control and 96 % of control

SMILES: C=CCN1CCCC1=O
- T/C [3]: 100 % of control
- T/C [4]: 102 % of control
- T/C [5]: 102 % of control

SMILES: c1ccc(-c2ncnc3ccccc23)cc1
- T/C [2]: 103 % of control
- T/C [6]: 101 % of control
- T/C [7]: 97 % of control

SMILES: NC(CC(=O)CCl)C(=O)O (stereo not given)
- T/C (endpoint: mean survival time, dose: 6.25 mg/kg/injection, schedule: Q04DX003 (ip), vehicle: saline): 120 % of control
- T/C (endpoint: mean survival time, dose: 37.5 mg/kg/injection, schedule: Q04DX003 (ip), vehicle: saline): 109 % of control
- T/C (endpoint: median survival time, dose: 10.0 mg/kg/injection, schedule: Q01DX001 (ip), vehicle: saline): 121 % of control
- T/C (endpoint: median survival time, dose: 20.0 mg/kg/injection, schedule: Q01DX001 (ip), vehicle: saline): 121 % of control
- T/C (endpoint: median survival time, dose: 30.0 mg/kg/injection, schedule: Q01DX009 (ip), vehicle: saline): 122 % of control
- T/C (endpoint: median survival time, dose: 40.0 mg/kg/injection, schedule: Q01DX001 (ip), vehicle: saline): 122 % of control
- T/C (endpoint: median survival time, dose: 60.0 mg/kg/injection, schedule: Q01DX009 (ip), vehicle: saline): 35 % of control

SMILES: O=C(CCN1C(=O)c2ccccc2C1=O)c1ccccc1
- T/C (endpoint: mean survival time, dose: 100.0 mg/kg/injection, schedule: Q04DX002 (ip), vehicle: saline with Tween-80): 95 % of control
- T/C (endpoint: mean survival time, dose: 200.0 mg/kg/injection, schedule: Q04DX002 (ip), vehicle: saline with Tween-80): 89 % of control
- T/C (endpoint: mean survival time, dose: 400.0 mg/kg/injection, schedule: Q04DX002 (ip), vehicle: saline with Tween-80): 92 % of control

SMILES: CCc1ccc2ccccc2c1N
- T/C [8]: 108 % of control
- T/C [3]: 110 % of control
- T/C [9]: 94 % of control
- T/C [4]: 118 % of control

SMILES: ClC(Cl)=[C](Cl)[Hg][C](Cl)=C(Cl)Cl
- T/C [1]: 93 % of control

SMILES: CC#CS(=O)(=O)C(C)(C)C
- T/C [8]: 100 % of control
- T/C [3]: 100 % of control
- T/C [2]: 93 % of control
- T/C [4]: 97 % of control
- T/C [6]: 90 % of control

SMILES: COc1cc2c3c(c1)/C(=N\NC(N)=S)CCN3CCC2
- T/C (endpoint: mean survival time, dose: 100.0 mg/kg/injection, schedule: Q01DX001 (ip), vehicle: saline with Tween-80): 93 % of control
- T/C [9]: 105 % of control
- T/C (endpoint: mean survival time, dose: 400.0 mg/kg/injection, schedule: Q01DX001 (ip), vehicle: saline with Tween-80): 93 % of control

SMILES: OC(CC(O)(C(F)(F)F)C(F)(F)F)c1cccc(C(F)(F)F)c1 (stereo not given)
- T/C (endpoint: mean survival time, dose: 132.0 mg/kg/injection, schedule: Q04DX003 (ip), vehicle: other): 98 % of control
- T/C (endpoint: mean survival time, dose: 200.0 mg/kg/injection, schedule: Q04DX003 (ip), vehicle: other): 94 % of control
- T/C (endpoint: mean survival time, dose: 300.0 mg/kg/injection, schedule: Q04DX003 (ip), vehicle: other): 93 % of control

SMILES: Nc1nc2ncc(CNc3ccc(C(=O)NC(CCC(=O)O)C(=O)O)cc3)nc2c(=O)[nH]1.[NH-]C1CCCCC1[NH-].[Pt+2] (stereo not given)
- T/C (endpoint: median survival time, dose: 3.12 mg/kg/injection, schedule: Q04DX003 (ip), vehicle: saline): 102 % of control and 104 % of control
- T/C (endpoint: median survival time, dose: 6.25 mg/kg/injection, schedule: Q04DX003 (ip), vehicle: saline): 107 % of control and 108 % of control
- T/C (endpoint: median survival time, dose: 12.5 mg/kg/injection, schedule: Q04DX003 (ip), vehicle: saline): 105 % of control
- T/C (endpoint: median survival time, dose: 25.0 mg/kg/injection, schedule: Q04DX003 (ip), vehicle: saline): 116 % of control and 108 % of control
- T/C (endpoint: median survival time, dose: 50.0 mg/kg/injection, schedule: Q04DX003 (ip), vehicle: saline): 114 % of control and 111 % of control
- T/C (endpoint: median survival time, dose: 100.0 mg/kg/injection, schedule: Q04DX003 (ip), vehicle: saline): 113 % of control and 115 % of control
- T/C (endpoint: median survival time, dose: 200.0 mg/kg/injection, schedule: Q04DX003 (ip), vehicle: saline): 161 % of control

SMILES: CCCCC1=C(P(=O)(OCC)OCC)C(F)(F)C(F)(F)C1(F)F
- T/C (endpoint: mean survival time, dose: 75.0 mg/kg/injection, schedule: Q01DX001 (ip), vehicle: other): 98 % of control
- T/C (endpoint: mean survival time, dose: 150.0 mg/kg/injection, schedule: Q01DX001 (ip), vehicle: other): 86 % of control
- T/C (endpoint: mean survival time, dose: 300.0 mg/kg/injection, schedule: Q01DX001 (ip), vehicle: other): 100 % of control

SMILES: CC(=O)OCC1OC(n2nc(-c3ccccc3)c(=O)n(-c3ccccc3)c2=O)C(OC(C)=O)C(OC(C)=O)C1OC(C)=O (stereo not given)
- T/C (endpoint: mean survival time, dose: 3.8 mg/kg/injection, schedule: Q01DX005 (ip), vehicle: water): 96 % of control
- T/C (endpoint: mean survival time, dose: 7.5 mg/kg/injection, schedule: Q01DX005 (ip), vehicle: water): 96 % of control
- T/C (endpoint: mean survival time, dose: 15.0 mg/kg/injection, schedule: Q01DX005 (ip), vehicle: water): 96 % of control
- T/C (endpoint: mean survival time, dose: 30.0 mg/kg/injection, schedule: Q01DX005 (ip), vehicle: water): 101 % of control
- T/C (endpoint: mean survival time, dose: 60.0 mg/kg/injection, schedule: Q01DX005 (ip), vehicle: water): 101 % of control

SMILES: NC(=O)CC(N)C(=O)O.[Cl-].[Cl-].[Cl-].[Cl-].[Pt+2] (stereo not given)
- T/C (endpoint: mean survival time, dose: 0.78 mg/kg/injection, schedule: Q01DX009 (ip), vehicle: water): 101 % of control
- T/C (endpoint: mean survival time, dose: 1.56 mg/kg/injection, schedule: Q01DX009 (ip), vehicle: water): 95 % of control
- T/C (endpoint: mean survival time, dose: 3.13 mg/kg/injection, schedule: Q01DX009 (ip), vehicle: water): 98 % of control
- T/C (endpoint: mean survival time, dose: 6.25 mg/kg/injection, schedule: Q01DX009 (ip), vehicle: water): 90 % of control
- T/C (endpoint: mean survival time, dose: 12.5 mg/kg/injection, schedule: Q01DX009 (ip), vehicle: water): 101 % of control

SMILES: CCCCCCCCC(=O)NCCCNC(=O)CCCCCCCC
- T/C (endpoint: mean survival time, dose: 75.0 mg/kg/injection, schedule: Q04DX003 (ip), vehicle: saline): 88 % of control
- T/C (endpoint: mean survival time, dose: 150.0 mg/kg/injection, schedule: Q04DX003 (ip), vehicle: saline): 88 % of control
- T/C (endpoint: mean survival time, dose: 300.0 mg/kg/injection, schedule: Q04DX003 (ip), vehicle: saline): 103 % of control

SMILES: ClC1(Cl)C2(Cl)C3(Cl)C4(Cl)C(Cl)(Cl)C5(Cl)C3(Cl)C1(Cl)C5(Cl)C24Cl (stereo not given)
- T/C [3]: 97 % of control
- T/C [2]: 103 % of control
- T/C [4]: 102 % of control
- T/C [6]: 94 % of control
- T/C [5]: 100 % of control
- T/C [7]: 96 % of control

SMILES: CCOC(=O)Nc1cc(Nc2ccccc2)c2[nH]cnc2n1
- T/C (endpoint: mean survival time, dose: 12.5 mg/kg/injection, schedule: Q01DX001 (ip), vehicle: Klucel (hydroxypropylcellulose) (HPC)): 96 % of control
- T/C (endpoint: mean survival time, dose: 25.0 mg/kg/injection, schedule: Q01DX001 (ip), vehicle: Klucel (hydroxypropylcellulose) (HPC)): 93 % of control
- T/C (endpoint: mean survival time, dose: 50.0 mg/kg/injection, schedule: Q01DX001 (ip), vehicle: Klucel (hydroxypropylcellulose) (HPC)): 93 % of control
- T/C (endpoint: mean survival time, dose: 100.0 mg/kg/injection, schedule: Q01DX001 (ip), vehicle: Klucel (hydroxypropylcellulose) (HPC)): 93 % of control
- T/C (endpoint: mean survival time, dose: 200.0 mg/kg/injection, schedule: Q01DX001 (ip), vehicle: Klucel (hydroxypropylcellulose) (HPC)): 95 % of control
- T/C (endpoint: mean survival time, dose: 400.0 mg/kg/injection, schedule: Q01DX001 (ip), vehicle: Klucel (hydroxypropylcellulose) (HPC)): 93 % of control

SMILES: COc1ccc(O)c(CC(C)C)c1
- T/C (endpoint: mean survival time, dose: 100.0 mg/kg/injection, schedule: Q01DX009 (ip), vehicle: acetone): 100 % of control
- T/C (endpoint: mean survival time, dose: 200.0 mg/kg/injection, schedule: Q01DX009 (ip), vehicle: acetone): 104 % of control
- T/C (endpoint: mean survival time, dose: 400.0 mg/kg/injection, schedule: Q01DX009 (ip), vehicle: acetone): 96 % of control

SMILES: NS(=O)(=O)OCCCCCCCOS(N)(=O)=O
- T/C (endpoint: median survival time, dose: 12.5 mg/kg/injection, schedule: Q01DX009 (ip), vehicle: saline with Tween-80): 114 % of control and 116 % of control and 110 % of control

SMILES: O=C(SSC(=O)c1ccccc1)c1ccccc1
- T/C [3]: 95 % of control
- T/C [2]: 98 % of control
- T/C [4]: 103 % of control
- T/C [6]: 102 % of control
- T/C [5]: 91 % of control
- T/C [7]: 96 % of control

SMILES: ClCCN(CCCl)c1ccc(N=Nc2ccccc2)cc1
- T/C (endpoint: mean survival time, dose: 100.0 mg/kg/injection, schedule: Q04DX003 (ip), vehicle: Klucel (hydroxypropylcellulose) (HPC)): 102 % of control
- T/C (endpoint: mean survival time, dose: 200.0 mg/kg/injection, schedule: Q04DX003 (ip), vehicle: Klucel (hydroxypropylcellulose) (HPC)): 113 % of control
- T/C (endpoint: mean survival time, dose: 400.0 mg/kg/injection, schedule: Q04DX003 (ip), vehicle: Klucel (hydroxypropylcellulose) (HPC)): 113 % of control
